Earlier results, collected in patent US11484561B2, “Morus extracts rich in N-acids of imino sugars and or pipecolic acids” (Phynova Limited, priority 2011, dated 2022).

Legend:
Settings in all cases: typical DNJ inhibitory activity shown for reference, in words; cited from earlier work
α-D-glucosidase (rice) = biological target: T1, α-D-glucosidase (rice) (Oryza sativa subsp. japonica, UniProt Q653V7)
T1 construct: purchased Sigma-Aldrich

[1] = tested on: β-D-mannosidase Cellulomonas fimi; set-up: key: NI = no inhibition
β-D-glucosidase (almond) = tested on: β-D-glucosidase (almond)
[2] = tested on: α-D-glucosidase (Bacillus)
[3] = biological target: T2, α-D-mannosidase (Jack bean) (Canavalia ensiformis, UniProt C0HJB3)
T2 construct: purchased Sigma-Aldrich
T2 sequence (C0HJB3 1-562 limits assumed): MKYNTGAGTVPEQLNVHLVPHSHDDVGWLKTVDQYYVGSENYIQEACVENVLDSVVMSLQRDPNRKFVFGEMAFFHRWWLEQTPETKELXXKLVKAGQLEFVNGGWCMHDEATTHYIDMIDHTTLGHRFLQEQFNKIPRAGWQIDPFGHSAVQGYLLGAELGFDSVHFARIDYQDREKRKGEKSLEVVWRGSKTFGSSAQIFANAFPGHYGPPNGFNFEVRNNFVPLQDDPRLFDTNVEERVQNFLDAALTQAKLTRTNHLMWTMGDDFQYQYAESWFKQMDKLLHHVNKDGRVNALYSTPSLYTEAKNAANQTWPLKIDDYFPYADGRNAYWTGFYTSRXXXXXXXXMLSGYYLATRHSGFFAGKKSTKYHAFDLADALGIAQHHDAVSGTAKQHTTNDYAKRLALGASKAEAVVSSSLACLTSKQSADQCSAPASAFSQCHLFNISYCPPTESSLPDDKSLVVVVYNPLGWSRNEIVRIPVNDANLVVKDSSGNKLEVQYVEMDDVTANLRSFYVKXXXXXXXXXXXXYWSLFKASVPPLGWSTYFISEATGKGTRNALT

α-L-fucosidase (bovine) = biological target: T3, α-L-fucosidase (bovine) (Bos taurus, UniProt Q2KIM0); set-up: key: NI = no inhibition
T3 construct: purchased Sigma-Aldrich
T3 sequence (Q2KIM0 23-468): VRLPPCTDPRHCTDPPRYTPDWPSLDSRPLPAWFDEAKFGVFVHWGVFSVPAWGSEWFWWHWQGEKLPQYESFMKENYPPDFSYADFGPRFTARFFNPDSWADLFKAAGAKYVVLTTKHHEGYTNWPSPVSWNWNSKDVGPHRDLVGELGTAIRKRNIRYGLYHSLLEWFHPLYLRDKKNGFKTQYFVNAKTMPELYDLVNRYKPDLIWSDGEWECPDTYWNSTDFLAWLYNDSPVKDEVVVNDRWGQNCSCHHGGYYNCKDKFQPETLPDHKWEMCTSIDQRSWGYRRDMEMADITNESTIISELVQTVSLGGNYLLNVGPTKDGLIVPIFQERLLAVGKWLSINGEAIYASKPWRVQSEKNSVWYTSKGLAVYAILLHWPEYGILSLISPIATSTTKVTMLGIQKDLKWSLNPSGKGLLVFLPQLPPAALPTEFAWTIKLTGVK

[4] = biological target: T4, β-D-galactosidase (bovine) (Bos taurus, UniProt Q58D55); set-up: key: NI = no inhibition
T4 construct: purchased Sigma-Aldrich
T4 sequence (Q58D55 28-653): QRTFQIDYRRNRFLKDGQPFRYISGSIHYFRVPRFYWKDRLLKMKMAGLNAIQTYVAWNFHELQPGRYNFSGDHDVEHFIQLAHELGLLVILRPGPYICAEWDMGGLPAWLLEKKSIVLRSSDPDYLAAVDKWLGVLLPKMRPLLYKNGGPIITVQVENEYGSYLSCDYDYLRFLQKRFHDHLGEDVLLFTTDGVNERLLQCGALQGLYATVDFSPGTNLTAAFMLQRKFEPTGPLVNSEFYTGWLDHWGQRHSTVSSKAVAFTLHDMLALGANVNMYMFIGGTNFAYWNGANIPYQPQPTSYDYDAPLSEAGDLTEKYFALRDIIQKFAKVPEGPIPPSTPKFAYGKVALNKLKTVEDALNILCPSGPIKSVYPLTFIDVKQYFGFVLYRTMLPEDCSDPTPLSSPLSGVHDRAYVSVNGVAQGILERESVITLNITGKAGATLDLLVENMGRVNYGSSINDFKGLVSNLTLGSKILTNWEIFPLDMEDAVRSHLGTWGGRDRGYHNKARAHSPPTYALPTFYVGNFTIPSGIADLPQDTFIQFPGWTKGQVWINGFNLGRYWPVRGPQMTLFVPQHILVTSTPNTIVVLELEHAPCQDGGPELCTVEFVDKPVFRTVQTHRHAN

[5] = biological target: T5, amyloglucosidase (A. niger) (Aspergillus niger, UniProt P69328); set-up: key: NI = no inhibition
T5 construct: purchased Sigma-Aldrich
T5 sequence (P69328 25-640): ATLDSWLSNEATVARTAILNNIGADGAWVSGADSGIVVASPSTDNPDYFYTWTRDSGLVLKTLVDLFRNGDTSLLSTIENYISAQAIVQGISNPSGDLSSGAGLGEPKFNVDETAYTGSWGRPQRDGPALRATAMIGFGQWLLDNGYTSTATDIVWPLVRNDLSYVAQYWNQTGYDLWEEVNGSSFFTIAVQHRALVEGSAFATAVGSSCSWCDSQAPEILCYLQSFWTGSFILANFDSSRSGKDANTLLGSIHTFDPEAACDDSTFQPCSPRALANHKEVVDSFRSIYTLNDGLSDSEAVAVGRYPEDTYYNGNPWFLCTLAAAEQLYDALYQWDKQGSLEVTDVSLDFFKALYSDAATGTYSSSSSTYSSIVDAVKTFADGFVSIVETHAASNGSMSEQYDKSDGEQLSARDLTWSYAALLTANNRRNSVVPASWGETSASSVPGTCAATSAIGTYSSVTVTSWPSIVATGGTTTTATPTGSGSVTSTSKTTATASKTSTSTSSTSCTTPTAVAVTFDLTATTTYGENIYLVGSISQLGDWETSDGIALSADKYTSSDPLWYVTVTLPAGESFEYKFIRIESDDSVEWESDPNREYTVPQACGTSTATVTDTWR

[6] = tested on: N-acetyl-β-D-gluc (Jack bean); set-up: key: NI = no inhibition

T1 sequence (Q653V7 34-885): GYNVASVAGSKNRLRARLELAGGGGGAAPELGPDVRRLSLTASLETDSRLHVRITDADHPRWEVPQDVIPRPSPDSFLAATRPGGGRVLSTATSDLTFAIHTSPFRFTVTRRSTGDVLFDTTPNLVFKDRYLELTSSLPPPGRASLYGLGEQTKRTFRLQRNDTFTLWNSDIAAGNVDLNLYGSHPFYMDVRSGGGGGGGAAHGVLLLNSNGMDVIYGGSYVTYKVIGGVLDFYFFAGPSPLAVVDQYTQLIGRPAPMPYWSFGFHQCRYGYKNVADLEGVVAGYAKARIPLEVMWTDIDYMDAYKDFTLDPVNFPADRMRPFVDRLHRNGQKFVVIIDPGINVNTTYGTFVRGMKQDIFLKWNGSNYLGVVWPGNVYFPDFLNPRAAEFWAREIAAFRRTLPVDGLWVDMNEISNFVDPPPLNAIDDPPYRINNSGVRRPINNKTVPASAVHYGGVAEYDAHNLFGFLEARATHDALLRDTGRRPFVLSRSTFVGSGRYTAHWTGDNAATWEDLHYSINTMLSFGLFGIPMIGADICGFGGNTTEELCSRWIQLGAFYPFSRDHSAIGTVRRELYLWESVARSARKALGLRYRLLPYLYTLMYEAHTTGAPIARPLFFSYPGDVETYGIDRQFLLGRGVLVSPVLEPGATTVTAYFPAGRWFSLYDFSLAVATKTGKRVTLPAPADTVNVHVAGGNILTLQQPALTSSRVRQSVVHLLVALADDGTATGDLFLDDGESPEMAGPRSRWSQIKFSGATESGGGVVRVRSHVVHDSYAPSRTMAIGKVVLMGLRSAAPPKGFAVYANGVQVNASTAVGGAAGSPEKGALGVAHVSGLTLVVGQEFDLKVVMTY

OC[C@H]1NC[C@H](O)[C@@H](O)[C@@H]1O [DNJ, 1 deoxynojirmycin]
α-D-glu rice, typical DNJ inhibitory activity (α-D-glucosidase (rice)): potent
β-D-man Cellulomonas, typical DNJ inhibitory activity [1]: NI
β-D-glu almond, typical DNJ inhibitory activity (β-D-glucosidase (almond)): moderate
α-D-glu Bacillus, typical DNJ inhibitory activity [2]: potent
α-D-man Jack bean, typical DNJ inhibitory activity [3]: weak
α-L-fuc bovine, typical DNJ inhibitory activity (α-L-fucosidase (bovine)): NI
β-D-gal bovine, typical DNJ inhibitory activity [4]: NI
amyloglucosidase (A. niger), typical DNJ inhibitory activity [5]: NI
N-acetyl-β-D-gluc (Jack bean), typical DNJ inhibitory activity [6]: NI
